Reference: patent US20170007615A1, “Antibacterial Compounds” (priority 2014, published 2017)
Converted amounts (≈) assume the structure as drawn.

Columns and labels:
[1] = system: H. influenzae (ATCC 49247); test: Antibacterial activity (MIC), Gram-negative type strain; type: cell-based, Haemophilus influenzae; settings: Haemophilus influenzae, ATCC49247; Table 13
[2] = system: S. aureus (ATCC 29213); test: Antibacterial activity (MIC), Gram-positive type strain; type: cell-based, Staphylococcus aureus; settings: Staphylococcus aureus, ATCC29213; Table 13
[3] = system: N. gonorrheae (ATCC 49226); test: Antibacterial activity (MIC), Gram-negative type strain; type: cell-based, Neisseria gonorrhoeae; settings: Neisseria gonorrhoeae, ATCC49226; Table 13
[4] = system: E. faecalis (ATCC 29212); test: Antibacterial activity (MIC), Gram-positive type strain; type: cell-based, Enteroccocus faecalis; settings: Enterococcus faecalis, ATCC29212; Table 13

| Structure (SMILES) | MIC [1] | MIC [2] | MIC [3] | MIC [4] |
| --- | --- | --- | --- | --- |
| CCNC(=O)Nc1nc2cc(-c3cnc(NS(=O)(=O)NC)nc3)cc(-c3ccc(C)cn3)c2s1 [Compound A-42, 1-ethyl-3-[7-(5-methyl-2-pyridyl)-5-[2-(methylsulfamoylamino)pyrimidin-5-yl]-1,3-benzothiazol-2-yl]urea] | 0.03 mg/L (≈ 0.0602 µM) | 0.06 mg/L (≈ 0.12 µM) | ≤ 0.008 mg/L | ≤ 0.008 mg/L |
| CCNC(=O)Nc1nc2cc(-c3cnc(NS(=O)(=O)N4CCOCC4)nc3)cc(-c3ccc(C)cn3)c2s1 [Compound A-44, N-(5-(2-(3-ethylureido)-7-(5-methylpyridin-2-yl)benzo[d]thiazol-5-yl)pyrimidin-2-yl)morpholine-4-sulfonamide] | 0.03 mg/L (≈ 0.0541 µM) | 0.03 mg/L (≈ 0.0541 µM) | ≤ 0.008 mg/L | ≤ 0.008 mg/L |
| CCNC(=O)Nc1nc2cc(-c3cnc(NS(=O)(=O)N4CCCC4)nc3)cc(-c3ccccn3)c2s1 [Compound A-45, N-(5-(2-(3-ethylureido)-7-(pyridin-2-yl)benzo[d]thiazol-5-yl)pyrimidin-2-yl)pyrrolidine-1-sulfonamide] | 0.06 mg/L (≈ 0.114 µM) | 0.015 mg/L (≈ 0.0286 µM) | ≤ 0.008 mg/L | ≤ 0.008 mg/L |
| CCNC(=O)Nc1nc2cc(-c3cnc(NS(=O)(=O)C[C@@H](N)Cc4ccccc4)nc3)cc(-c3ccc(C)cn3)c2s1 [Compound A-46, (S)-2-amino-N-(5-(2-(3-ethylureido)-7-(5-methylpyridin-2-yl)benzo[d]thiazol-5-yl)pyrimidin-2-yl)-3-phenylpropane-1-sulfonamide] | 2 mg/L (≈ 3.32 µM) | 1 mg/L (≈ 1.66 µM) | 0.06 mg/L (≈ 0.0995 µM) | 0.25 mg/L (≈ 0.415 µM) |
| CCNC(=O)Nc1nc2cc(-c3cnc(NS(=O)(=O)CC)nc3)cc(-c3ccc(C)cn3)c2s1 [Compound A-47, N-(5-(2-(3-ethylureido)-7-(5-methylpyridin-2-yl)benzo[d]thiazol-5-yl)pyrimidin-2-yl)ethanesulfonamide] | ≤ 0.008 mg/L | 0.015 mg/L (≈ 0.0301 µM) | ≤ 0.008 mg/L | ≤ 0.008 mg/L |
| CCNC(=O)Nc1nc2cc(-c3cnc(NS(=O)(=O)C(C)C)nc3)cc(-c3ccc(C)cn3)c2s1 [Compound A-48, N-(5-(2-(3-ethylureido)-7-(5-methylpyridin-2-yl)benzo[d]thiazol-5-yl)pyrimidin-2-yl)propane-2-sulfonamide] | 0.03 mg/L (≈ 0.0586 µM) | 0.015 mg/L (≈ 0.0293 µM) | ≤ 0.008 mg/L | ≤ 0.008 mg/L |
| CCNC(=O)Nc1nc2cc(-c3cnc(NS(=O)(=O)N4CC(OC)C4)nc3)cc(-c3ccccn3)c2s1 [Compound A-49, N-(5-(2-(3-ethylureido)-7-(pyridin-2-yl)benzo[d]thiazol-5-yl)pyrimidin-2-yl)-3-methoxyazetidine-1-sulfonamide] | 2 mg/L (≈ 3.7 µM) | 1 mg/L (≈ 1.85 µM) | 0.25 mg/L (≈ 0.462 µM) | 0.25 mg/L (≈ 0.462 µM) |
| CCNC(=O)Nc1nc2cc(-c3cnc(NS(=O)(=O)N4CC(OC)C4)nc3)cc(-c3ccc(C)cn3)c2s1 [Compound A-50, N-(5-(2-(3-ethylureido)-7-(5-methylpyridin-2-yl)benzo[d]thiazol-5-yl)pyrimidin-2-yl)-3-methoxyazetidine-1-sulfonamide] | 4 mg/L (≈ 7.21 µM) | 0.5 mg/L (≈ 0.901 µM) | 0.25 mg/L (≈ 0.451 µM) | 0.03 mg/L (≈ 0.0541 µM) |
| CCNC(=O)Nc1nc2cc(-c3cnc(NS(=O)(=O)c4ccccc4)nc3)cc(-c3ccc(C)cn3)c2s1 [Compound A-51, N-(5-(2-(3-ethylureido)-7-(5-methylpyridin-2-yl)benzo[d]thiazol-5-yl)pyrimidin-2-yl)benzenesulfonamide] | 0.015 mg/L (≈ 0.0275 µM) | 0.015 mg/L (≈ 0.0275 µM) | ≤ 0.008 mg/L | 0.008 mg/L (≈ 0.0147 µM) |
| CCNC(=O)Nc1nc2cc(-c3cnc(NS(=O)(=O)CCN4CCOCC4)nc3)cc(-c3ccc(C)cn3)c2s1 [Compound A-52, N-(5-(2-(3-ethylureido)-7-(5-methylpyridin-2-yl)benzo[d]thiazol-5-yl)pyrimidin-2-yl)-2-morpholinoethanesulfonamide] | 0.12 mg/L (≈ 0.206 µM) | 0.5 mg/L (≈ 0.858 µM) | 0.03 mg/L (≈ 0.0515 µM) | 0.12 mg/L (≈ 0.206 µM) |
| CCNC(=O)Nc1nc2cc(-c3cnc(NS(=O)(=O)C4CCNC4)nc3)cc(-c3ccc(C)cn3)c2s1 (stereo not shown) [Compound A-53, N-(5-(2-(3-ethylureido)-7-(5-methylpyridin-2-yl)benzo[d]thiazol-5-yl)pyrimidin-2-yl)pyrrolidine-3-sulfonamide] | > 64 mg/L | > 64 mg/L | 2 mg/L (≈ 3.71 µM) | 0.5 mg/L (≈ 0.928 µM) |
| CCNC(=O)Nc1nc2cc(-c3cnc(NS(=O)(=O)N4CCC(O)C4)nc3)cc(-c3ccc(C)cn3)c2s1 (stereo not shown) [Compound A-54, N-(5-(2-(3-ethylureido)-7-(5-methylpyridin-2-yl)benzo[d]thiazol-5-yl)pyrimidin-2-yl)-3-hydroxypyrrolidine-1-sulfonamide] | 0.03 mg/L (≈ 0.0541 µM) | 0.12 mg/L (≈ 0.216 µM) | ≤ 0.008 mg/L | ≤ 0.008 mg/L |
| CCNC(=O)Nc1nc2cc(-c3cnc(NS(=O)(=O)C4(CO)CC4)nc3)cc(-c3ccc(C)cn3)c2s1 [Compound A-55, N-(5-(2-(3-ethylureido)-7-(5-methylpyridin-2-yl)benzo[d]thiazol-5-yl)pyrimidin-2-yl)-1-(hydroxymethyl)cyclopropane-1-sulfonamide] | 0.03 mg/L (≈ 0.0556 µM) | 0.12 mg/L (≈ 0.222 µM) | ≤ 0.008 mg/L | ≤ 0.008 mg/L |
